Test results from patent US12714696B2, “Low dose fluralaner compositions for protection against parasitic invertebrate pest” (VIRBAC, priority 2019, dated 2026).
Read-outs that look alike come from different tables or passages of the source.

Legend:
Rhipicephalus sanguineus = test: Efficacy against ticks on dogs, oral 250/35/600 μg/kg study; type: in vivo; conditions: for Percentage efficacy using geometric mean, live ticks / live ticks, geometric mean, Group 2: oral 250/35/600 μg/kg regimen, dogs
Method: The second objective is to investigate the pharmacodynamics between the fluralaner plasmatic dose and the effectiveness against ticks. • IVP: Investigational Veterinary Product, is pure Fluralaner+DMSO (250 μg/kg on Days 0 to 3 (0.25 mL/kg), then 35 μg/kg on Days 4 to 9 (0.35 mL/kg), then 600 μg/kg on Day 11) • Control product is DMSO (0.25 mL/kg on Days 0 to 3, then 0.35 mL/kg on Days 4 to 9)
Dogs were infested with approximately 50 (±4) viable, adult, unfed R. sanguineus ticks on Days 1, 3, 5, 8, 10, 12, 16, 22, 26 and 30 to assess efficacy. Ticks will be removed and counted on Days 3, 5, 7 (48 hours±2 hours after infestation) and 9, 11, 13, 17, […], 27, 32 (24 hours±2 hours after infestation). Dogs were also infested with approximately 100 (±8) viable, adult, C. felis fleas on Day −6 (±1 day) for randomisation purposes and on Day 2 to assess efficacy. Fleas will be removed and counted on Days −5 (+1 day) and 3 (24 hours±2 hours after infestation).
The efficacy against ticks and fleas were calculated for the study groups at each assessment day according to the formulas given below.
Efficacy calculations based on geometric mean values were, however, also reported on. Such calculations were based on the geometric mean values of the tick or flea (count+1) data. One (1) was subsequently subtracted from the result to obtain a meaningful value for the geometric mean of each group.
Efficacy was calculated as follows: Efficacy (%)=100×(Mc−Mt)/Mc, where: • Mc=Mean number of live ticks (categories 1 to 2) or live fleas on dogs in the negative control group (group 1) at a specific time point. • Mt=Mean number of live ticks (categories 1 to 2) or live fleas on dogs in the IVP group (group 2) • at a specific time point.

[1] = Adverse event observation, oral study against ticks; type: in vivo, beagle dogs; conditions: oral 250/35/600 μg/kg regimen, dogs
Method: Dogs assigned to group 1 received the control product and served as Placebo controls. Dogs were observed hourly±15 minutes for four hours after administration on Day 0 and once daily two hours±15 minutes after Investigational Veterinary Product or control product administration on Days 1, 2 and 3. Observations were conducted for each individual dog.

[2] = cited from earlier work
[3] = Intravenous 12.5 mg/kg, single, dogs, n = 6, mean ± standard deviation
[4] = Oral 12.5 mg/kg, single, dogs, n = 6, mean ± standard deviation
[5] = Oral 25.0 mg/kg, single, dogs, n = 6, mean ± standard deviation
[6] = Oral 50.0 mg/kg, single, dogs, n = 6, mean ± standard deviation
[7] = literature data (Table 6; equals Oral 50.0 mg/kg of Table 5)

Cc1cc(C2=NOC(c3cc(Cl)cc(Cl)c3)(C(F)(F)F)C2)ccc1C(=O)NCC(=O)NCC(F)(F)F (centres unmarked) [fluralaner, Fluralaner]
Percentage efficacy using geometric mean, live ticks (Rhipicephalus sanguineus; Day 3): 100 | live ticks, geometric mean, Group 2 (Rhipicephalus sanguineus; Day 3): 0.0 | Percentage efficacy using geometric mean, live ticks (Rhipicephalus sanguineus; Day 5): 100 | live ticks, geometric mean, Group 2 (Rhipicephalus sanguineus; Day 5): 0.0 | Percentage efficacy using geometric mean, live ticks (Rhipicephalus sanguineus; Day 7): 100 | live ticks, geometric mean, Group 2 (Rhipicephalus sanguineus; Day 7): 0.0 | Percentage efficacy using geometric mean, live ticks (Rhipicephalus sanguineus; Day 9): 47.3 | live ticks, geometric mean, Group 2 (Rhipicephalus sanguineus; Day 9): 11.8 | Percentage efficacy using geometric mean, live ticks (Rhipicephalus sanguineus; Day 11): 77.8 | live ticks, geometric mean, Group 2 (Rhipicephalus sanguineus; Day 11): 7.8 | Percentage efficacy using geometric mean, live ticks (Rhipicephalus sanguineus; Day 13): 85.0 | live ticks, geometric mean, Group 2 (Rhipicephalus sanguineus; Day 13): 4.5 | Percentage efficacy using geometric mean, live ticks (Rhipicephalus sanguineus; Day 17): 80.8 | live ticks, geometric mean, Group 2 (Rhipicephalus sanguineus; Day 17): 5.1 | Percentage efficacy using geometric mean, live ticks (Rhipicephalus sanguineus; Day 23): 46.1 | Percentage efficacy using geometric mean, live ticks (Rhipicephalus sanguineus; Day 27): 78.9 | live ticks, geometric mean, Group 2 (Rhipicephalus sanguineus; Day 27): 6.8 | Percentage efficacy using geometric mean, live ticks (Rhipicephalus sanguineus; Day 31): 56.1 | efficacy against ticks from the first day after treatment (Rhipicephalus sanguineus; infestation at D1, first measurement at D3): present | efficacy against ticks (Rhipicephalus sanguineus; period during the first four doses of 250 μg/kg per day and the following three doses of 35 μg/kg per day): 100% | Adverse Events as a result of the product [1]: No Adverse Events | AUC(0-d112) [2, 3]: 87198 ± 11835 ng·days/mL | AUC(0→∞) [2, 3]: 87779 ± 12004 ng·days/mL | Cl [2, 3]: 5.83 ± 0.83 mL/h/kg | Cmax [2, 3]: 7109 ± 908 ng/mL | MRT [2, 3]: 20 ± 3 days | Vz [2, 3]: 3.1 ± 0.5 L/kg | t1/2 [2, 3]: 15 ± 2 days | tmax ([2]; Oral 12.5 mg/kg, single, dogs, n = 6, Median): 1 (range 0.08-2) day | AUC(0-d112) [2, 4]: 29665 ± 13858 ng·days/mL | AUC(0→∞) [2, 4]: 29922 ± 13808 ng·days/mL | Cmax [2, 4]: 2144 ± 860 ng/mL | MRT [2, 4]: 19 ± 2 days | t1/2 [2, 4]: 13 ± 1 days | tmax ([2]; Oral 25.0 mg/kg, single, dogs, n = 6, Median): 1 (range 1-2) day | AUC(0-d112) [2, 5]: 46115 ± 18932 ng·days/mL | AUC(0→∞) [2, 5]: 46416 ± 18929 ng·days/mL | Cmax [2, 5]: 3948 ± 1734 ng/mL | MRT [2, 5]: 15 ± 4 days | t1/2 [2, 5]: 12 ± 3 days | tmax ([2]; Oral 50.0 mg/kg, single, dogs, n = 6, Median): 1 (range 0.17-3) day | AUC(0-d112) [2, 6]: 70171 ± 26412 ng·days/mL | AUC(0→∞) [2, 6]: 70531 ± 26529 ng·days/mL | Cmax [2, 6]: 5419 ± 2086 ng/mL | MRT [2, 6]: 17 ± 3 days | t1/2 [2, 6]: 14 ± 1 days | AUCtot [2, 7]: 70531 µg·days/L | Cmax [2, 7]: 5419 ng/mL | t1/2 [2, 7]: 14 days | tmax [2, 7]: 1 days
